Assay [1] deals with HER2^+ human gastric cancer cell line NCI-N87 xenograft. In words: anticancer activity in NCI-N87 xenograft tumor mouse model. The format is in vivo. The note with it: 4 μg intravenously.
Procedure: 5-week-old BALB/c male nude mice (initial body weight of 18˜20 g) (Nara Biotech) were acclimatized for 1 week, and then HER2^+ human gastric cancer cell line NCI-N87 was subcutaneously transplanted into the lateral abdomen at 1×10^7 cells/mouse to construct a xenograft tumor model mouse. […] The tumor size was measured at an interval of 2˜4 days, and after 25 days from the start of administration, the tumor tissues were extracted, and the size and weight were measured (FIG. 65).
In assay [2] the test system is mouse melanoma cell line B16F10 overexpressing human HER2, allograft. Briefly: anticancer activity of TPP-DOX_MT^α-HER2scFv in allograft tumor mouse model. The format is in vivo. As to conditions: MT^α-HER2scFv 20 μg, TPP-DOX 5 μg, TPP-DOX/MT 5 μg/20 μg, intravenously 3 times a week for 3 weeks.
Procedure: 7-week-old C57BL/6 female mice (Samtako Bio Korea) were acclimatized for 1 week, and then the mouse melanoma cell line B16F10 was subcutaneously transplanted into the lateral abdomen of the mice at about 5×10^5 cells/mouse to construct an allograft tumor mouse. […] When the average volume of the tumor reached 100˜200 mm^3, the mice were divided into 4 groups of 3 mice per test group, and MT^α-HER2scFv (20 μg), TPP-DOX (5 μg) or TPP-DOX_MT^α-HER2scFv (TPP-DOX/MT: 5 μg/20 μg) was intravenously administered 3 times a week for 3 weeks. The tumor size was measured 3 times a week, and after the end of the experiment (after 3 weeks from the start of administration), the tumor tissues of the mice were extracted, and the size and weight were measured (FIG. 69).
For assay [3], the system named is lung fibroblast cell line (CCD-8Lu and WI-38). Briefly: proliferation inhibition at the same concentration, WST-1 assay, normal cells (TPP-DOX series). As to conditions: 0.5 μM, 144 hours. The format is cell-based, human. As for the experimental part: At this time, the mitochondria-only treated group (MT^α-HER2scFv) was used as a negative control for TPP-DOX_MT^α-HER2scFv. Statistical processing was performed using Graphpad 5.0 software, and p values were measured with one-way ANOVA (Turkey's) test (*p<0.05, **p<0.01 and ***p<0.001).

Assay [4] has as its system SK-BR-3, BT-474, MDA-MB-231, NCI-H1975, NCI-N87 and MKN-74. In words: cancer cell proliferation inhibition for each concentration, WST-1 assay (TPP-DOX series). The format is cell-based, human. The note with it: 0.01 to 2 μM, 144 hours, versus untreated group (NC). As for the experimental part: After culturing for 24 hours, each cell was treated with TPP-DOX or TPP-DOX_MT^α-HER2scFv at a concentration of 2 μM, 1 μM, 0.5 μM, 0.25 μM, 0.1 μM, 0.05 μM, 0.025 μM and 0.01 μM. […] At this time, the mitochondria-only treated group (MT, MT^α-HER2scFv) was used as a negative control for TPP-DOX MT^α-HER2scFv.

The test system of assay [5] is human lung fibroblast cell lines WI-38 and CCD-8Lu. In words: proliferation inhibition in normal cells for each concentration, WST-1 assay (TPP-DOX series). The format is cell-based. The note with it: 0.01 to 2 μM, 144 hours. The procedure:
Specifically, the human lung fibroblast cell lines WI-38 and CCD-8Lu were inoculated into a 96-well plate at about 3×10^3 cells/well, respectively, and cultured for 24 hours. At this time, WI-38 and CCD-8Lu were cultured in DMEM medium containing 10% FBS. After culturing for 24 hours, each cell was treated with TPP-DOX or TPP-DOX_MT^α-HER2scFv at a concentration of 2 μM, 1 μM, 0.5 μM, 0.25 μM, 0.1 μM, 0.05 μM, 0.025 μM and 0.01 μM. […] At this time, the mitochondria-only treated group (MT, MT^α-HER2scFv) was used as a negative control for TPP-DOX MT^α-HER2scFv.

The subject of assay [6] is lung fibroblast cell line (CCD-8Lu and WI-38). In words: proliferation inhibition at the same concentration, WST-1 assay, normal cells (DOX series). The format is cell-based. As to conditions: Homo sapiens, 144 hours, read-out: cell proliferation inhibitory effect compared to the untreated group, normal cells. As for the experimental part:
(§1) 200 μg of MT^α-HER2scFv and 100 μM doxorubicin (DOX) were reacted in the same manner as in Preparation Example 2 above. In order to compare the influence of the obtained DOX_MT^α-HER2scFv on cell proliferation in cancer cells and normal cells, after treatment with DOX_MT^α-HER2scFv at the same concentration in the human breast cancer, lung cancer, gastric cancer cell lines and the lung fibroblast cell line, the cell proliferation inhibitory ability was measured.
(§2) Specifically, the human breast cancer (SK-BR-3, BT-474 and MDA-MB-231), lung cancer (NCI-H1975), gastric cancer (MKN-74 and NCI-N87) cell lines and the lung fibroblast cell line (CCD-8Lu and WI-38) were inoculated into a 96-well plate at about 3×10^3 cells/well, respectively, and cultured for 24 hours. At this time, SK-BR-3, BT-474 and NCI-N87 cells were cultured in RPMI-1640 medium containing 10% FBS. MDA-MB-231, NCI-H1975, MKN-74, CCD-8Lu, and WI-38 cells were cultured in DMEM medium containing 10% FBS. After culturing for 24 hours, the cells were treated with 0.5 μM doxorubicin (DOX) or DOX_MT^α-HER2scFv respectively, and after 144 hours, the cell proliferation inhibitory ability was evaluated by WST-1 assay. […] Statistical processing was performed using Graphpad 5.0 software, and p values were measured with one-way ANOVA (Turkey's) test (*p<0.05, **p<0.01, and ***p<0.001).

Assay [7] deals with SK-BR-3, BT-474, MDA-MB-231, NCI-H1975, NCI-N87 and MKN-74. Briefly: cancer cell proliferation inhibition for each concentration, WST-1 assay (DOX series). The format is cell-based, human. The note with it: 0.01 to 2 μM, 144 hours, versus untreated group (NC). The procedure:
Specifically, the human breast cancer (SK-BR-3, BT-474 and MDA-MB-231), lung cancer (NCI-H1975) and gastric cancer (NCI-N87 and MKN-74) cell lines were inoculated into a 96-well plate at about 3×10^3 cells/well, respectively, and cultured for 24 hours. At this time, SK-BR-3, BT-474 and NCI-N87 cells were cultured in RPMI-1640 medium containing 10% FBS, and MDA-MB-231, NCI-H1975 and MKN-74 cells were cultured in DMEM medium containing 10% FBS. After culturing for 24 hours, each cell was treated with doxorubicin (DOX) or DOX_MT^α-HER2scFv at a concentration of 2 μM, 1 μM, 0.5 μM, 0.25 μM, 0.1 μM, 0.05 μM, 0.025 μM, and 0.01 μM. After 144 hours of sample treatment, cell proliferation was measured by WST-1 assay.

Assay [8] concerns human lung fibroblast cell lines WI-38 and CCD-8Lu. Briefly: proliferation inhibition in normal cells for each concentration, WST-1 assay (DOX series). As to conditions: 0.01 to 2 μM, 144 hours. The format is cell-based. As for the experimental part:
200 μg of MT^α-HER2scFv and 100 μM doxorubicin (DOX) were reacted in the same manner as in Preparation Example 2 above. In order to confirm the influence of the obtained DOX_MT^α-HER2scFv on cell proliferation in normal cells, the cell proliferation inhibitory effect by treatment with DOX_MT^α-HER2scFv in human lung fibroblasts was evaluated.
Specifically, the human lung fibroblast cell lines WI-38 and CCD-8Lu were inoculated into a 96-well plate at about 3×10^3 cells/well, respectively, and cultured for 24 hours. At this time, WI-38 and CCD-8Lu were cultured in DMEM medium containing 10% FBS. After culturing for 24 hours, each cell was treated with doxorubicin (DOX) or DOX_MT^α-HER2scFv at a concentration of 2 μM, 1 μM, 0.5 μM, 0.25 μM, 0.1 μM, 0.05 μM, 0.025 μM, and 0.01 μM. After 144 hours of sample treatment, cell proliferation was measured by WST-1 assay.

Assay [9] relates to SK-BR-3, BT-474, MDA-MB-231, NCI-H1975, MKN-74 and NCI-N87. In words: proliferation inhibition at the same concentration, WST-1 assay, cancer cells (DOX series). Format: cell-based. As to conditions: Homo sapiens, 144 hours, read-out: cell proliferation inhibitory effect compared to the untreated group, cancer cells. The procedure: as §1, §2
The subject of assay [10] is mouse melanoma cell line B16F10 overexpressing human HER2, allograft. Briefly: anticancer activity of DOX_MT^α-HER2scFv in allograft tumor animal model. Format: in vivo. As to conditions: MT^α-HER2scFv 20 μg, DOX 4 μg, DOX_MT^α-HER2scFv 4 μg/20 μg, intravenously 3 times a week for 3 weeks. From the text:
7-week-old C57BL/6 female mice (Samtako Bio Korea) were acclimatized for 1 week, and then the mouse melanoma cell line B16F10 was subcutaneously transplanted into the lateral abdomen of the mice at about 5×10^5 cells/mouse to construct an allograft tumor mouse. At this time, B16F10 cells in which the human HER2 gene was overexpressed using lentivirus were used as B16F10 cells. When the average volume of the tumor reached 100˜200 mm^3, the mice were divided into 4 groups of 3 mice per test group, and MT^α-HER2scFv (20 μg), DOX (4 μg) or DOX_MT^α-HER2scFv (TPP-DOX/MT: 4 μg/20 μg) was intravenously administered 3 times a week for 3 weeks. The tumor size was measured 3 times a week, and after the end of the experiment (after 3 weeks from the start of administration), the tumor tissues of the mice were extracted, and the size and weight were measured (FIG. 73).

The next assay deals with T1, PDL1 (human, UniProt Q9NZQ7 19-290).
T1 construct: whole, on cells; also called PDL1 antigen
T1 sequence (Q9NZQ7 19-290): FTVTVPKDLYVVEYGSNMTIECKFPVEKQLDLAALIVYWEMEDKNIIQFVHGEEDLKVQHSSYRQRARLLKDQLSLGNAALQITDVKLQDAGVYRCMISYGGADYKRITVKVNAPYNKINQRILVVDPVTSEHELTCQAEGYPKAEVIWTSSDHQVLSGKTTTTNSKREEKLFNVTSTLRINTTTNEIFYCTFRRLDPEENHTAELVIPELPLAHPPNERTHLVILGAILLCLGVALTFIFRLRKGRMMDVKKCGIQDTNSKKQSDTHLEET
Briefly: confocal microscopy, MitoTracker Red-stained scFv-fused mitochondria on co-cultured BXPC-3 (PDL1+) and CFPAC-1 (PDL1-) cells. As for the experimental part: Mitochondria to be used as samples were prepared by treating untreated HEK293 cells (MT) and HEK293 cells comprising mitochondria fused with an anti-PDL1scFv antibody (MT^{α-PDL1scFv}) with MitoTracker Red to stain the mitochondria, and then isolating the mitochondria. After co-culture for 24 hours, each isolated mitochondrion was treated with the co-cultured cells and reacted for 24 hours (FIG. 47).
The cells treated in the same manner as in Example 4 above were washed once with PBS, and fixed by adding 3.7% formaldehyde at room temperature for 30 minutes, and then immunocytochemistry staining was performed. At this time, an anti-PDL1 antibody (Cell signaling, 86744) was used as a primary antibody, and Alexa Fluor 488 goat anti-rabbit IgG (H+L) was used as a secondary antibody. The nuclei of the cells were observed by staining with DAPI.

Take “triphenylphosphonium (TPP)-doxorubicin [TPP-DOX]”: the “tumor size by date compared to the control group (CTR)” value in [1] is listed as “similar”. The “tumor size compared to the control group (CTR)” value in assay [2] is on record as “similar”. The “proliferation inhibitory ability, normal cells” value in [3] is “weak”. In addition, the “cell proliferation inhibitory effect” value in [4] is listed as “inhibited in a concentration-dependent manner”. In assay [5], the “cell proliferation inhibitory ability in normal cells” value was “weaker than that of cancer cells”.

Regarding `COc1cccc2c1C(=O)c1c(O)c3c(c(O)c1C2=O)C[C@@](O)(C(=O)CO)C[C@@H]3O[C@H]1C[C@H](N)[C@H](O)[C@H](C)O1` [DOX, doxorubicin], the values for the inhibition at 0.5 µM in assay [6] and in assay [9] were no more than 25% and 50 to 80%, respectively. Moreover, the “cell proliferation inhibitory effect” value in assay [7] is reported as “inhibited in a concentration-dependent manner”. In [8], the “cell proliferation inhibitory ability in normal cells” value is “weaker than that of cancer cells”. The “tumor size compared to the control group (CTR)” value in assay [10] is “significantly reduced”.

B1: anti-PDL1scFv antibody fused to the mitochondrial outer membrane (scFvPDL1-myc-TOM7) (scFv)
scFv: MDIVMSQSPSSLAVSAGEKVTMSCKSSQSLLNSRTRKNYLAWYQQKPGQSPKLLIYWASTRESGVPDRFTGSGSGTDFTLTISSVQAEDLAVYYCQQSYDVVTFGAGTKLELKGGGGSGGGGSGGGGSQVQVQQSGAELAEPGASVKMSCKASGYIFTSYWMHWLKQRPGQGLEWIGYINPSSDYNEYSEKFMDKATLTADKASTTAYMQLISLTSEDSAVYYCARSGWLVHGDYYFDYWGQGTTLTVSSEQKLISEEDLVKLSKEAKQRLQQLFKGSQFAIRWGFIPLVIYLGFKRGADPGMPEPTVLSLLWG
notes: In the assay the fusion protein was anchored on the outer membrane of mitochondria isolated from HEK293 cells (MT^α-PDL1scFv); also called MT^α-PDL1scFv; single chain variable region fragment of an anti-PDL1 antibody
Take B1: the binding result in the assay with PDL1 is on record as “binds”.

Values taken from US20230372529A1, “MITOCHONDRIA COMPRISING ANTICANCER DRUG AND USE THEREOF” (Paean Biotechnology Inc., priority 2020, published 2023).
